Measured values: patent US20070037219A1, “Rhesus monkey bombesin receptor subtype-3 (brs-3), nucleotides encoding same, and uses thereof” (priority 2003, published 2007)

Legend:
[1] = target: rhesus monkey bombesin receptor subtype-3 (rhesus monkey) (UniProt Q6H2Y3); test: cell-based or functional assay
[2] = test system: rhesus monkey BRS3 receptor; test: Functional expression of rhesus monkey BRS3 in aequorin-expressing reporter cell line 293-AEQ17 (luminescence, fractional response); type: cell-based; details: 293-AEQ17 cells transfected with rhesus monkey BRS3 plasmid, aequorin light emission, read-out: EC50 value for activation of the rhesus monkey BRS3 receptor
rhesus monkey BRS3 receptor, sequence (as listed by the source): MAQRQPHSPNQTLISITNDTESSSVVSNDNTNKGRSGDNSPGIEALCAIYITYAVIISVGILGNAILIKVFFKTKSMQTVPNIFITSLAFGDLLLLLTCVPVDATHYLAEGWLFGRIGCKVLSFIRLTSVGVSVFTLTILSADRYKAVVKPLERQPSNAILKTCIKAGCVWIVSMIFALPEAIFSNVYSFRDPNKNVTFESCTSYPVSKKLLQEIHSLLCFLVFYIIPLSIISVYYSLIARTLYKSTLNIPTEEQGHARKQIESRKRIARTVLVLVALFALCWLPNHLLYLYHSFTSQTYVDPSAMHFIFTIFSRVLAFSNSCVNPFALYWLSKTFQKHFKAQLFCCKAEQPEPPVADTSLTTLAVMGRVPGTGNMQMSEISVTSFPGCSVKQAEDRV
Procedure: Measurement of rhesus monkey BRS3 receptor expression in the aequorin-expressing stable reporter cell line 293-AEQ17 (Button et al., 1993. Cell Calcium 14: 663-671) was performed using a Luminoskan RT luminometer (Labsystems Inc., Gaithersburg, Md.) controlled by custom software written for a Macintosh PowerPC 6100. 293-AEQ17 cells (8×10^5 cells plated 18 hours before transfection in a T75 flask) were transfected with 22 μg of rhesus monkey BRS3 receptor plasmid DNA: 264 μg lipofectamine.
Following approximately 40 hours of expression, the apo-aequorin in the cells was charged for 4 hours with coelenterazine (10 μM) under reducing conditions (300 μM reduced glutathione) in ECB buffer (140 mM NaCl, 20 mM KCl, 20 mM HEPES-NaOH [pH=7.4], 5 MM glucose, 1 mM MgCl2, 1 mM CaCl2, 0.1 mg/ml bovine serum albumin). The cells were harvested, washed once in ECB medium and resuspended to 500,000 cells/ml. 100 μl of cell suspension (corresponding to 5×10^4 cells) was then injected into the test plate containing the BRS3 agonist peptide D-Tyr6-betaAla11-Phe13-Nle14]bombesin6-14, and the integrated light emission was recorded over 30 seconds, in 0.5-second units. 20 μL of lysis buffer (0.1% final Triton X-100 concentration) was then injected and the integrated light emission recorded over 10 seconds, in 0.5-second units. […]

[3] = test system: all three human bombesin receptor subtypes; details: literature statement, Pradhan et al., Eur. J. Pharmacol. 343: 275-87 (1998); cited from earlier work

rhesus monkey bombesin receptor subtype-3 (rhesus monkey), sequence (Q6H2Y3 whole entry): as the sequence (as listed by the source) above

Substance | EC50 value for activation (aequorin luminescence, fractional response, in transfected 293-AEQ17 cells) [1] [nM] | EC50 [2] [nM] | affinity for all three human bombesin receptor subtypes [3]
[D-Tyr6-betaAla11-Phe13-Nle14]bombesin(6-14) (peptide) | 10 | – | –
[D-Tyr6-betaAlal 11-Phe13-Nle14] bombesin(6-14) [dYB] | – | 10 | high affinity
